# Results reported in patent US12446574B2, “Adjuvants for agrochemical formulations” (SYNGENTA CROP PROTECTION AG, priority 2016, dated 2025).
# Assay: Storage stability of aqueous adjuvant formulations: clear isotropic single-phase solution after 24 hours at the temperature of interest
# Assay type: physicochemical
# Parameters: key: Pass: Samples which were found to be clear isotropic solutions after 24 hours were classified as a pass; Fail: all other results were classed as a fail
# Text: For the purposes of the present invention we define a stable formulation of adjuvant in water as one where the mixture forms a homogeneous or single phase liquid. The liquid may be a micellar solution however it will appear isotropic to the naked eye. […] This stability allows the design of products with shelf lives potentially running to several years. […]
smiles,measurement,setting,value
"COCc1cnc(C2=NC(C)(C(C)C)C(=O)N2)c(C(=O)O)c1 (stereo not drawn) [Imazamox, imazamox]",Result,"20 °C, Plurafac=0, water=40.5, imazamox=4.5, Tween 20=50, PG=5 % w/w",Pass
same,Result,"20 °C, Plurafac=0, water=45, imazamox=5, Tween 20=50 % w/w",Pass
same,Result,"20 °C, Plurafac=0, water=64.8, imazamox=7.2, Tween 20=20, PG=8 % w/w",Pass
same,Result,"20 °C, Plurafac=0, water=72, imazamox=8, Tween 20=20 % w/w",Pass
same,Result,"20 °C, Plurafac=0, water=72.9, imazamox=8.1, Tween 20=10, PG=9 % w/w",Pass
same,Result,"20 °C, Plurafac=0, water=81, imazamox=9, Tween 20=10 % w/w",Pass
same,Result,"50 °C, Plurafac=0, water=40.5, imazamox=4.5, Tween 20=50, PG=5 % w/w",Pass
same,Result,"50 °C, Plurafac=0, water=45, imazamox=5, Tween 20=50 % w/w",Pass
same,Result,"50 °C, Plurafac=0, water=64.8, imazamox=7.2, Tween 20=20, PG=8 % w/w",Pass
same,Result,"50 °C, Plurafac=0, water=72, imazamox=8, Tween 20=20 % w/w",Pass
same,Result,"50 °C, Plurafac=0, water=72.9, imazamox=8.1, Tween 20=10, PG=9 % w/w",Pass
same,Result,"50 °C, Plurafac=0, water=81, imazamox=9, Tween 20=10 % w/w",Pass
same,Result,"-5 °C, Plurafac=0, water=40.5, imazamox=4.5, Tween 20=50, PG=5 % w/w",Fail
same,Result,"-5 °C, Plurafac=0, water=45, imazamox=5, Tween 20=50 % w/w",Fail
same,Result,"-5 °C, Plurafac=0, water=64.8, imazamox=7.2, Tween 20=20, PG=8 % w/w",Pass
same,Result,"-5 °C, Plurafac=0, water=72, imazamox=8, Tween 20=20 % w/w",Pass
same,Result,"-5 °C, Plurafac=0, water=72.9, imazamox=8.1, Tween 20=10, PG=9 % w/w",Pass
same,Result,"-5 °C, Plurafac=0, water=81, imazamox=9, Tween 20=10 % w/w",Pass
same,Result,"-10 °C, Plurafac=0, water=40.5, imazamox=4.5, Tween 20=50, PG=5 % w/w",Fail
same,Result,"-10 °C, Plurafac=0, water=45, imazamox=5, Tween 20=50 % w/w",Fail
same,Result,"-10 °C, Plurafac=0, water=64.8, imazamox=7.2, Tween 20=20, PG=8 % w/w",Pass
same,Result,"-10 °C, Plurafac=0, water=72, imazamox=8, Tween 20=20 % w/w",Pass
same,Result,"-10 °C, Plurafac=0, water=72.9, imazamox=8.1, Tween 20=10, PG=9 % w/w",Pass
same,Result,"-10 °C, Plurafac=0, water=81, imazamox=9, Tween 20=10 % w/w",Pass
